Results from PubChem BioAssay (NCI).
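48-hour exposure; five concentrations; linearly interpolated endpoints. GI50 = concentration required for 50% inhibition of growth. The concentration for full growth arrest is given as TGI.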 Where a SMILES comes first, the peptide text is derived from it. The star is where a group is joined. Boc = CC(C)(C)OC(=O)*; nBu = CCCC*

What was measured:
Test in all cases: NCI-60 cell line screen, 48 h
OVCAR-5 ovarian = system: OVCAR-5 ovarian
SN12C renal = system: SN12C renal
MALME-3M melanoma = system: MALME-3M melanoma
NCI-H460 lung = system: NCI-H460 lung
U251 CNS = system: U251 CNS
NCI-H226 lung = system: NCI-H226 lung
UACC-257 melanoma = system: UACC-257 melanoma
UO-31 renal = system: UO-31 renal
UACC-62 melanoma = system: UACC-62 melanoma
SR leukemia = system: SR leukemia

Row | Structure (SMILES) | TGI (OVCAR-5 ovarian) | TGI (SN12C renal) | TGI (MALME-3M melanoma) | TGI (NCI-H460 lung) | TGI (U251 CNS) | TGI (NCI-H226 lung) | TGI (UACC-257 melanoma) | TGI (UO-31 renal) | TGI (UACC-62 melanoma) | TGI (SR leukemia) | GI50 (OVCAR-5 ovarian) | GI50 (NCI-H226 lung) | GI50 (MALME-3M melanoma) | GI50 (NCI-H460 lung) | GI50 (U251 CNS) | GI50 (UACC-257 melanoma) | GI50 (UO-31 renal) | GI50 (UACC-62 melanoma) | GI50 (SR leukemia)
1 | Cc1ccc(-c2cn3c(nc4ccccc43)c(/C=C/c3ccco3)n2)cc1 | > 100 µM | > 100 µM | > 100 µM | > 100 µM | > 100 µM | > 100 µM | > 100 µM | > 100 µM | > 100 µM | 89 µM | – | – | – | – | – | – | – | – | –
2 | CN(CCc1ccccn1)c1ccc2c(c1)C(=O)c1ccccc1-2 | > 100 µM | > 100 µM | > 100 µM | > 100 µM | > 100 µM | > 100 µM | > 100 µM | > 100 µM | > 100 µM | – | – | – | – | – | – | – | – | – | –
3 | O=C1c2c(Br)sc(Br)c2[C@@H](O)[C@H]1O | 36.6 µM | 32.8 µM | 40.6 µM | 31.8 µM | 20.8 µM | 37.7 µM | 29.3 µM | 32.3 µM | 30.4 µM | 4.84 µM | – | – | – | – | – | – | – | – | –
4 | COc1ccc(N2C(=O)C(=O)C3(CCCCC3)C2=O)c2ccccc12 | > 10 µM | > 10 µM | > 10 µM | > 10 µM | > 10 µM | > 10 µM | – | > 10 µM | > 10 µM | > 10 µM | – | – | – | – | – | – | – | – | –
5 | CCCCCCCCCCCCCCCc1nc(=S)[nH][nH]1 | > 100 µM | > 100 µM | > 100 µM | > 100 µM | > 100 µM | – | > 100 µM | > 100 µM | > 100 µM | > 100 µM | – | – | – | – | – | – | – | – | –
6 | COc1ccc(CCn2cncn2)cc1 | > 100 µM | > 100 µM | – | > 100 µM | > 100 µM | > 100 µM | > 100 µM | > 100 µM | > 100 µM | > 100 µM | – | – | – | – | – | – | – | – | –
7 | COc1ccc(C2C3CCc4ccccc4C3=NN2S(=O)(=O)c2cccc(C(=O)O)c2OC)cc1 (stereo unspecified) | > 100 µM | > 100 µM | > 100 µM | > 100 µM | 34.9 µM | > 100 µM | – | > 100 µM | > 100 µM | > 100 µM | – | – | – | – | – | – | – | – | –
8 | CN1CCC(C(O)(c2ccccc2)c2ccc(Br)cc2)CC1 (stereo unspecified) | 93.3 µM | 44.3 µM | 27.6 µM | 62.5 µM | 43.1 µM | 59.5 µM | 29.7 µM | 33.1 µM | 30.1 µM | 47.6 µM | – | – | – | – | – | – | – | – | –
9 | N#C/C(=C(/O)CCl)c1nc2ccccc2o1 | – | 9.33 µM | 29.1 µM | 14.3 µM | 23.8 µM | 5.07 µM | 13.2 µM | 12.7 µM | 6.27 µM | 15 µM | – | – | – | – | – | – | – | – | –
10 | COC(=O)c1c(O)ccc2c1c1cc3ccccc3c(O)c1n2CCc1ccc(OC)c(OC)c1 | > 100 µM | > 100 µM | > 100 µM | > 100 µM | > 100 µM | > 100 µM | > 100 µM | > 100 µM | > 100 µM | > 100 µM | – | – | – | – | – | – | – | – | –
11 | O=P(NCCCO)(OCc1ccccc1)N(CCCl)CCCl (stereo unspecified) | > 100 µM | > 100 µM | > 100 µM | > 100 µM | > 100 µM | > 100 µM | > 100 µM | > 100 µM | > 100 µM | – | – | – | – | – | – | – | – | – | –
12 | C/C(C=O)=C/[C@@]1(C)O[C@@H](C)[C@@](C)(O)[C@@H]1O | > 100 µM | > 100 µM | > 100 µM | 64 µM | > 100 µM | > 100 µM | > 100 µM | 4.71 µM | > 100 µM | 7.12 µM | – | – | – | – | – | – | – | – | –
13 | CC(C)CC(N)C(=O)NC(C(=O)NC(CCCNC(=N)N)C(=O)NC(CS)C(=O)NC1CSCC(C(=O)NC(Cc2ccccc2)C(=O)NC(C(=O)NC(CCCNC(=N)N)C(=O)O)C(C)C)NC(=O)C2CCCN2C(=O)C(CCCCN)NC(=O)C2CCCN2C(=O)C2CCCN2C(=O)C(Cc2ccc(O)cc2)NC(=O)C(CO)NC(=O)C(CCCCN)NC(=O)C(C(C)O)NC(=O)C(Cc2c[nH]c3ccccc23)NC1=O)C(C)C (stereo unspecified) | > 25 µM | > 25 µM | > 25 µM | – | > 25 µM | > 25 µM | > 25 µM | > 25 µM | > 25 µM | > 25 µM | – | – | – | – | – | – | – | – | –
14 | CCOc1nc2c(N3CCCC3)nc(N3CCNCC3)nc2nc1NCc1ccccc1 | 16.3 µM | 2.96 µM | 3.3 µM | 2.91 µM | 2.39 µM | 3.82 µM | 3.25 µM | 2.6 µM | 3.25 µM | 3.12 µM | – | – | – | – | – | – | – | – | –
15 | CCCCOc1ccc(CC(NC(=O)OC(C)(C)C)C(=O)NC(C)C(=O)NC(Cc2ccccc2)C(=O)NCC(N)=O)cc1 (stereo unspecified) (Boc-Y(nBu)AFG-NH2; configuration not given here) | > 100 µM | > 100 µM | > 100 µM | > 100 µM | > 100 µM | > 100 µM | > 100 µM | > 100 µM | > 100 µM | – | – | – | – | – | – | – | – | – | –
16 | O=C(Cc1nc2ccccc2[nH]c1=O)c1c[nH]c2ccccc12 | 57.1 µM | 54.3 µM | > 100 µM | 32.4 µM | 33 µM | 31.3 µM | > 100 µM | 33.7 µM | 29 µM | > 100 µM | – | – | – | – | – | – | – | – | –
17 | COc1ccc2nc3cc(Cl)ccc3c(NCCCN3CCN(CCCNc4ccc5nnn6c7ccccc7c(=O)c4c56)CC3)c2c1 | > 25 µM | > 25 µM | – | > 25 µM | > 25 µM | > 25 µM | > 25 µM | > 25 µM | > 25 µM | > 25 µM | – | – | – | – | – | – | – | – | –
18 | O=C(Nc1ccccc1)Oc1ccc(C(=S)Nc2ccc(Br)cc2)cc1 | 46.4 µM | – | 65.1 µM | 59.3 µM | 56.1 µM | – | 67.1 µM | – | 30 µM | 50.8 µM | – | – | – | – | – | – | – | – | –
19 | COc1ccccc1-c1c(C#N)c(N)[nH]c(=S)c1C#N | > 100 µM | 91.8 µM | > 100 µM | > 100 µM | > 100 µM | > 100 µM | > 100 µM | > 100 µM | > 100 µM | > 100 µM | – | – | – | – | – | – | – | – | –
20 | Cc1c(-c2ccccc2)[nH]c2cn[nH]c(=O)c12 | > 100 µM | – | > 100 µM | > 100 µM | > 100 µM | – | > 100 µM | > 100 µM | > 100 µM | > 100 µM | – | – | – | – | – | – | – | – | –
21 | CC1(C)OC[C@@H]([C@@]2(COC(c3ccccc3)(c3ccccc3)c3ccccc3)CC=CC(=O)O2)O1 | > 100 µM | 97.1 µM | > 100 µM | > 100 µM | > 100 µM | > 100 µM | > 100 µM | > 100 µM | > 100 µM | > 100 µM | – | – | – | – | – | – | – | – | –
22 | O=C(O)c1cc2ccccc2c(N=Nc2ccc(S(=O)(=O)Nc3ncccn3)cc2)c1O | > 100 µM | – | > 100 µM | > 100 µM | > 100 µM | > 100 µM | > 100 µM | > 100 µM | > 100 µM | > 100 µM | – | – | – | – | – | – | – | – | –
23 | COc1cc(C2S/C(=C/c3ccccc3)C(=O)N2c2cccc(NC(C)=O)c2)cc(OC)c1OC (stereo unspecified) | > 100 µM | > 100 µM | 98.3 µM | – | 50.8 µM | > 100 µM | > 100 µM | > 100 µM | > 100 µM | > 100 µM | – | – | – | – | – | – | – | – | –
24 | Cc1cc(-c2nc3c(F)cccc3s2)ccc1N | 76.2 µM | > 100 µM | > 100 µM | – | > 100 µM | > 100 µM | > 100 µM | > 100 µM | > 100 µM | > 100 µM | 1.68 µM | 5.45 µM | – | – | – | – | – | – | –
25 | C=C1C(O)C2(O)OCC34C(CC5C(C)=CC(=O)C(O)C5(C)C23)OC(=O)C(OC(=O)C/C=C/CCCCCCCC)C14 (stereo unspecified) | 0.773 µM | 0.193 µM | 0.0229 µM | – | 0.0227 µM | 0.029 µM | – | 0.231 µM | 0.0292 µM | – | – | – | – | – | – | – | – | – | –
26 | CN(C)c1ccc(-c2ccc(-c3ccc(C(=N)N)cn3)o2)cc1 | 3.02 µM | – | 3.93 µM | 3.05 µM | 2.91 µM | – | 3.43 µM | 2.91 µM | 3.34 µM | 2.01 µM | 1.62 µM | – | 2.04 µM | 1.35 µM | 1.53 µM | 1.77 µM | 1.48 µM | 1.76 µM | 0.378 µM
27 | O=[N+]([O-])c1ccc(N=Nc2c(O)[nH]c3ccccc23)c([N+](=O)[O-])c1 | 50.2 µM | 38.8 µM | – | 37.4 µM | 47.8 µM | 75.5 µM | 34.6 µM | 36.6 µM | > 100 µM | > 100 µM | – | – | – | – | – | – | – | – | –
